Results reported in patent US9428496B2, “Thiazolamine derivative and use thereof as anti-picornaviral infection medicament” (Institute of Pharmacology and Toxicology Academy of …, priority 2010, dated 2016).
Values after ≈ are worked out from the molar mass of the structure shown. Like-named read-outs stand apart in the source and are kept apart here.

Legend:
[1] = test system: enterovirus Cox A16; experiment: microbe, parasite or virus in culture; type: cell-based; conditions: for CoxA16 SI: CoxA16, Vero cells; for IC50: Enterovirus, read-out: CoxA16 IC50
Protocol: (§1) Anti-picornaviral activity of the compounds of the present invention in in vitro model Test item: activity screening of compounds against enteroviruses EV71 and Cox A16 Test principle: using Vero cells as virus host, the cytopathic effect of Vero cells induced by the inhibition of compounds against enteroviruses EV71 and Cox A16 was measured.
(§2) 1. Virus strains: enteroviruses EV71 (Shenzhen 98) and Cox A16, passaging in the laboratory.
(§3) Test Method: Vero cells were incubated in a 96-well culture plate. After 24 hours, they were infected with EV71 and Cox A16 by adsorption for 2 hours. After discarding the virus solution, maintenance solutions containing different concentrations of samples and positive controls were added, and, at the same time, cell control wells and virus control wells were set. […] The half inhibitory concentrations (IC50) of the samples against EV71 and Cox A16 were respectively calculated according to the Reed-Muench method.

[2] = test system: enterovirus EV71 (Shenzhen 98); experiment: Inhibition of cytopathic effect (CPE) induced by EV71 in Vero cells; type: cell-based; conditions: for EV71 IC50 / IC50: CPE in Vero cells, Reed-Muench method; for EV71 SI: EV71, Vero cells
Protocol: as §1, §2, §3

[3] = test system: Vero cells; experiment: Toxicity of compounds to the Vero host cells (TC50, TC0); type: cell-based
[4] = CPE in Vero cells, Reed-Muench method

Compound	CoxA16 IC50 [1, 4] [µg/mL]	CoxA16 SI [1]	EV71 IC50 [2] [µg/mL]	EV71 SI [2]	TC0 [3] [µg/mL]	TC50 [3] [µg/mL]	IC50 [1, 4] [µg/mL]	IC50 [2] [µg/mL]	TC0 ([3]; Vero cells) [µg/mL]	TC50 ([3]; Vero cells) [µg/mL]	melting point [°C]	IC50 ([1]; Vero) [µg/mL]
2-{4-[5-(4-tert-butylphenoxy)pentyl]piperazin-1-yl}thiazole hydrochloride [Example 22]	6.25	4.0	1.97	12.7	12.5	25.0						
Brc1ccc(OCCCCCN2CCN(c3nccs3)CC2)cc1.Cl [Example 18, 2-{4-[5-(4-bromophenoxy)pentyl]piperazin-1-yl}thiazole hydrochloride]							> 0.78	> 0.78	0.78	4.96	221 to 223	
2-{4-[5-(4-tert-butylphenoxy)pentyl]piperazin-1-yl}thiazole [Example 16]	4.30	5.8	>12.5						12.5	25.0		
c1ccc(OCCCCCCN2CCN(c3nccs3)CC2)cc1 [Example 10, 2-[4-(6-phenoxyhexyl)piperazin-1-yl]thiazole]		2.0					12.5 (≈ 36.2 µM)	> 12.5	12.5	25.0 (≈ 72.4 µM)	37 to 39	
Fc1ccc(OCCCCCN2CCN(c3nccs3)CC2)cc1 [Example 3, 2-{4-[5-(4-fluorophenoxy)pentyl]piperazin-1-yl}thiazole]							> 12.5	> 12.5	12.5	79.37 (≈ 227 µM)	42 to 44	
Cl.c1ccc(OCCCCCN2CCN(c3nccs3)CC2)cc1 [Example 19, 2-[4-(5-phenoxypentyl)piperazin-1-yl]thiazole hydrochloride]		6.3					12.5	> 12.5	12.5	79.37	145 to 147	
Cc1ccc(OCCCCCN2CCN(c3nccs3)CC2)cc1 [Example 7, 2-{4-[5-(4-methylphenoxy)pentyl]piperazin-1-yl}thiazole]							> 3.13	> 3.13	3.13	19.84 (≈ 57.4 µM)	125 to 127	
COc1ccc(OCCCCCCN2CCN(c3nccs3)CC2)cc1.Cl [Example 20, 2-{4-[6-(4-methoxyphenoxy)hexyl]piperazin-1-yl}thiazole hydrochloride]							> 3.13	> 3.13	3.13	63.0	221 to 223	
Brc1ccc(OCCCCCCN2CCN(c3nccs3)CC2)cc1 [Example 14, 2-{4-[6-(4-bromophenoxy)hexyl]piperazin-1-yl}thiazole]		5.0					6.25 (≈ 14.7 µM)	> 12.5	12.5	31.5 (≈ 74.2 µM)	66 to 68	
CCOc1ccc(OCCCCCCN2CCN(c3nccs3)CC2)cc1.Cl [Example 21, 2-{4-[6-(4-ethoxyphenoxy)hexyl]piperazin-1-yl}thiazole hydrochloride]		8.0		12.7			3.13	1.97	3.13	25.0	222 to 224	
5-{4-[3-(4′-ethoxybiphenyl-4-oxy)pentyl]piperazin-1-yl}thiazole [Example 15]	100	>2.0	>200.0		>200.0	>200.0						
Brc1ccc(OCCCCCN2CCN(c3nccs3)CC2)cc1 [Example 17, 2-{4-[5-(4-bromophenoxy)pentyl]piperazin-1-yl}thiazole]							> 0.78	> 0.78	0.78	4.96 (≈ 12.1 µM)	73 to 75	
CC(C)c1ccc(OCCCCCCN2CCN(c3nccs3)CC2)cc1.Cl [Example 23, 2-{4-[6-(4-isopropylphenoxy)hexyl]piperazin-1-yl}thiazole hydrochloride]		34.8		10.1			0.57	1.97	3.13	19.84	135 to 137	
Cc1ccc(OCCCCCCN2CCN(c3nccs3)CC2)cc1 [Example 8, 2-{4-[6-(4-methylphenoxy)hexyl]piperazin-1-yl}thiazole]		5.0					4.96 (≈ 13.8 µM)	> 12.5	12.5	25.0 (≈ 69.5 µM)	37 to 39	
Fc1ccc(OCCCCCCN2CCN(c3nccs3)CC2)cc1 [Example 12, 2-{4-[6-(4-fluorophenoxy)hexyl]piperazin-1-yl}thiazole]							> 12.5	> 12.5	12.5	25.0 (≈ 68.8 µM)	58 to 60	
CC(C)(C)c1ccc(OCCCCCN2CCN(c3nccs3)CC2)cc1 [Example 6, 2-{4-[5-(4-tert-butylphenoxy)pentyl]piperazin-1-yl}thiazole]		4.0					1.57 (≈ 4.05 µM)	> 3.13	3.13	6.25 (≈ 16.1 µM)	125 to 127	
CC(C)c1ccc(OCCCCCN2CCN(c3nccs3)CC2)cc1 [Example 5, 2-{4-[5-(4-isopropylphenoxy)pentyl]piperazin-1-yl}thiazole]		4.0					1.57 (≈ 4.2 µM)	> 3.13	3.13	6.25 (≈ 16.7 µM)	128 to 130	
CC(C)(C)c1ccc(OCCCCCCN2CCN(c3nccs3)CC2)cc1 [Example 11, 2-{4-[6-(4-tert-butylphenoxy)hexyl]piperazin-1-yl}thiazole]		2.0		4.0			3.13 (≈ 7.79 µM)	1.57 (≈ 3.91 µM)	3.13	6.25 (≈ 15.6 µM)	30 to 32	
2-{4-[5-(4-tert-butylphenoxy)pentyl]piperazin-1-yl}thiazole [Example 13]	7.87	3.2	>12.5						12.5	25.0		
CCc1ccc(OCCCCCCN2CCN(c3nccs3)CC2)cc1 [Example 9, 2-{4-[6-(4-ethylphenoxy)hexyl]piperazin-1-yl}thiazole]		2.0		3.2			3.13 (≈ 8.38 µM)	1.97 (≈ 5.27 µM)	3.13	6.25 (≈ 16.7 µM)	21 to 23	
COc1ccc(OCCCCCN2CCN(c3nccs3)CC2)cc1 [Example 1, 2-{4-[5-(4-methoxyphenoxy)pentyl]piperazin-1-yl}thiazole]		4.0		2.8			25 (≈ 69.2 µM)	36.3 (≈ 100 µM)	50.0	100.0 (≈ 277 µM)	83 to 85	
NC(=O)c1ncn([C@@H]2O[C@H](CO)[C@@H](O)[C@H]2O)n1 [Con, ribavirin, reference compound]								517 (≈ 2120 µM)	500.0	2000 (≈ 8190 µM)		363 (≈ 1490 µM)
CCOc1ccc(OCCCCCN2CCN(c3nccs3)CC2)cc1 [Example 2, 2-{4-[5-(4-ethoxyphenoxy)pentyl]piperazin-1-yl}thiazole]		12.7		3.2			1.97 (≈ 5.25 µM)	7.87 (≈ 21 µM)	12.5	25.0 (≈ 66.6 µM)	79 to 81	
CCc1ccc(OCCCCCN2CCN(c3nccs3)CC2)cc1 [Example 4, 2-{4-[5-(4-ethylphenoxy)pentyl]piperazin-1-yl}thiazole]		6.3					1.97 (≈ 5.48 µM)	> 3.13	3.13	12.5 (≈ 34.8 µM)	125 to 127	
